Test results published in ChEMBL document CHEMBL1201862, “PubChem BioAssay data set” (2004).
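Exposure lasted 48 hours, with cells grown in 96-well plates and compounds tested at five concentrations. GI50 marks 50% less growth.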 Activity calls are given as the source filed them. Cut-off read from the data, not from the text of the source: active = GI50 up to about 1.1 µM and inactive = higher.

Experiments:
Assay in all cases: inhibition of tumour cell growth, NCI panel, 48 h
A498 = test system: A498
A549 = test system: A549
CCRF-CEM = test system: CCRF-CEM
HCT-15 = test system: HCT-15
HOP-62 = test system: HOP-62
HOP-92 = test system: HOP-92
MCF7 = test system: MCF7
MDA-N = test system: MDA-N
OVCAR-4 = test system: OVCAR-4
RXF 393 = test system: RXF 393
SF-268 = test system: SF-268
SK-MEL-2 = test system: SK-MEL-2
SK-MEL-5 = test system: SK-MEL-5
SN12C = test system: SN12C
U-251 = test system: U-251
UACC-62 = test system: UACC-62
EKVX = test system: EKVX
Malme-3M = test system: Malme-3M
NCI-H522 = test system: NCI-H522

Row | SMILES | GI50 (A498) | GI50 (A549) | GI50 (CCRF-CEM) | GI50 (HCT-15) [µM] | GI50 (HOP-62) | GI50 (HOP-92) | GI50 (MCF7) | GI50 (MDA-N) | GI50 (OVCAR-4) | GI50 (RXF 393) | GI50 (SF-268) | GI50 (SK-MEL-2) | GI50 (SK-MEL-5) | GI50 (SN12C) | GI50 (U-251) | GI50 (UACC-62) | GI50 (EKVX) | GI50 (Malme-3M) | GI50 (NCI-H522)
1 | COc1ccc(C2C3=C(N=C4SC(C(C)=O)=C(C)N42)c2ccccc2CC3)cc1 (configuration not stated) | > 100 µM (inactive) | 83 µM (inactive) | 28.8 µM (inactive) | > 100 | > 100 µM (inactive) | > 100 µM (inactive) | 92.7 µM (inactive) | 21.1 µM (inactive) | > 100 µM (inactive) | 23.7 µM (inactive) | > 100 µM (inactive) | > 100 µM (inactive) | 50.5 µM (inactive) | > 100 µM (inactive) | 57.9 µM (inactive) | 45.7 µM (inactive) | – | – | –
2 | C/C(=N\O)C1CC2C=C(C#N)C1N(Cc1ccccc1)C2 (configuration not stated) | > 100 µM (inactive) | > 100 µM (inactive) | > 100 µM (inactive) | > 100 | > 100 µM (inactive) | > 100 µM (inactive) | > 100 µM (inactive) | > 100 µM (inactive) | – | > 100 µM (inactive) | > 100 µM (inactive) | – | > 100 µM (inactive) | > 100 µM (inactive) | 46.3 µM (inactive) | > 100 µM (inactive) | > 100 µM (inactive) | > 100 µM (inactive) | –
3 | CCOP(=O)(C=C=C(C)C)OCC | > 100 µM (inactive) | > 100 µM (inactive) | – | > 100 | > 100 µM (inactive) | > 100 µM (inactive) | > 100 µM (inactive) | > 100 µM (inactive) | > 100 µM (inactive) | > 100 µM (inactive) | > 100 µM (inactive) | > 100 µM (inactive) | > 100 µM (inactive) | > 100 µM (inactive) | > 100 µM (inactive) | > 100 µM (inactive) | > 100 µM (inactive) | > 100 µM (inactive) | 36.4 µM (inactive)
4 | N/C(=N\c1ccc(Cl)cc1)NS(=O)(=O)c1ccc(-c2ccccn2)s1 | 12.5 µM (inactive) | 19.1 µM (inactive) | – | 17.5 | 18.1 µM (inactive) | 13 µM (inactive) | 17.1 µM (inactive) | 6.89 µM (inactive) | 11.5 µM (inactive) | 16.8 µM (inactive) | 17.3 µM (inactive) | 14.1 µM (inactive) | 15.8 µM (inactive) | 15.5 µM (inactive) | 15 µM (inactive) | 13.4 µM (inactive) | 12.1 µM (inactive) | 12.4 µM (inactive) | 9.27 µM (inactive)
5 | CN(C)c1ccc(C(c2ccc(Cl)cc2)c2ccc(N(C)C)cc2)cc1 | > 100 µM (inactive) | > 100 µM (inactive) | 72.9 µM (inactive) | > 100 | > 100 µM (inactive) | > 100 µM (inactive) | 49.1 µM (inactive) | 82.8 µM (inactive) | – | 28.8 µM (inactive) | > 100 µM (inactive) | > 100 µM (inactive) | 92.9 µM (inactive) | > 100 µM (inactive) | > 100 µM (inactive) | > 100 µM (inactive) | 62.5 µM (inactive) | 30.1 µM (inactive) | 28.5 µM (inactive)
6 | N#Cc1cc(N(CCCl)CCCl)c([N+](=O)[O-])cc1[N+](=O)[O-] | > 100 µM (inactive) | 83.8 µM (inactive) | 19.2 µM (inactive) | > 100 | > 100 µM (inactive) | > 100 µM (inactive) | 86.3 µM (inactive) | > 100 µM (inactive) | > 100 µM (inactive) | – | > 100 µM (inactive) | > 100 µM (inactive) | > 100 µM (inactive) | 48 µM (inactive) | > 100 µM (inactive) | > 100 µM (inactive) | > 100 µM (inactive) | 60.8 µM (inactive) | 87.9 µM (inactive)
7 | O=C(NN1C(=O)/C(=C/c2ccc(Cl)cc2)N=C1c1ccccc1)c1c(Cl)c(Cl)c(Cl)c(Cl)c1-c1nc2ccccc2[nH]1 | 12.9 µM (inactive) | 5.98 µM (inactive) | 12.1 µM (inactive) | 9.62 | < 0.01 µM (active) | 11.6 µM (inactive) | 9.91 µM (inactive) | 3.84 µM (inactive) | – | – | 14.6 µM (inactive) | 18.6 µM (inactive) | 19.7 µM (inactive) | 24.1 µM (inactive) | – | 10.7 µM (inactive) | 19.4 µM (inactive) | 20.8 µM (inactive) | 18.2 µM (inactive)
8 | CCN(CC)C(=O)N[C@@H](CC(C)C)C(=O)NC | > 100 µM (inactive) | > 100 µM (inactive) | > 100 µM (inactive) | > 100 | > 100 µM (inactive) | – | 49.4 µM (inactive) | > 100 µM (inactive) | > 100 µM (inactive) | > 100 µM (inactive) | > 100 µM (inactive) | > 100 µM (inactive) | > 100 µM (inactive) | > 100 µM (inactive) | > 100 µM (inactive) | > 100 µM (inactive) | > 100 µM (inactive) | > 100 µM (inactive) | > 100 µM (inactive)
9 | COC(=O)c1cccc2c1Oc1ccccc1S2 | 85.3 µM (inactive) | 75.2 µM (inactive) | 23.4 µM (inactive) | 46.1 | > 100 µM (inactive) | 25.8 µM (inactive) | 37.2 µM (inactive) | > 100 µM (inactive) | 66.4 µM (inactive) | 33 µM (inactive) | 38.8 µM (inactive) | > 100 µM (inactive) | 18.9 µM (inactive) | 56.6 µM (inactive) | 59.6 µM (inactive) | > 100 µM (inactive) | 39.4 µM (inactive) | – | 27.1 µM (inactive)
10 | COc1ccc2c(c1)CCc1c-2[nH]c2ccc(OC)cc12 | > 100 µM (inactive) | > 100 µM (inactive) | 14.4 µM (inactive) | > 100 | > 100 µM (inactive) | > 100 µM (inactive) | > 100 µM (inactive) | > 100 µM (inactive) | > 100 µM (inactive) | – | > 100 µM (inactive) | > 100 µM (inactive) | > 100 µM (inactive) | > 100 µM (inactive) | > 100 µM (inactive) | > 100 µM (inactive) | > 100 µM (inactive) | 45.8 µM (inactive) | > 100 µM (inactive)
11 | O=C(NCCc1ccccc1)[C@H]1CCCC[C@@H]1CCO | > 100 µM (inactive) | > 100 µM (inactive) | > 100 µM (inactive) | > 100 | > 100 µM (inactive) | > 100 µM (inactive) | > 100 µM (inactive) | > 100 µM (inactive) | > 100 µM (inactive) | > 100 µM (inactive) | > 100 µM (inactive) | > 100 µM (inactive) | > 100 µM (inactive) | > 100 µM (inactive) | > 100 µM (inactive) | > 100 µM (inactive) | > 100 µM (inactive) | – | > 100 µM (inactive)
12 | O=C(NN=C(c1ccccc1)c1ccccc1)/C(O)=C/C(=O)c1ccc(Cl)cc1 | 16.5 µM (inactive) | 27.7 µM (inactive) | 24.4 µM (inactive) | 24.7 | 45.2 µM (inactive) | – | 28 µM (inactive) | 40.5 µM (inactive) | 45.4 µM (inactive) | 35.2 µM (inactive) | 36.9 µM (inactive) | 29 µM (inactive) | 29.1 µM (inactive) | 27.9 µM (inactive) | 39.1 µM (inactive) | 39.1 µM (inactive) | 30.7 µM (inactive) | 20.7 µM (inactive) | 13.5 µM (inactive)
13 | S=c1[nH]nc(Cn2c3ccc(Br)cc3c3nc4ccccc4nc32)n1C1CCCCC1 | 20.5 µM (inactive) | 21.2 µM (inactive) | 25.6 µM (inactive) | 22 | 18.6 µM (inactive) | – | 16.7 µM (inactive) | 37.5 µM (inactive) | 13.7 µM (inactive) | 18.5 µM (inactive) | 51.6 µM (inactive) | 23.1 µM (inactive) | 6.87 µM (inactive) | 25 µM (inactive) | 18.5 µM (inactive) | 16.1 µM (inactive) | 35 µM (inactive) | 29.7 µM (inactive) | 21.3 µM (inactive)
14 | CCOC1NC(/N=C/c2ccc(OC)cc2)=C(C#N)C1C#N (configuration not stated) | > 100 µM (inactive) | > 100 µM (inactive) | 26.7 µM (inactive) | 99.3 | > 100 µM (inactive) | – | > 100 µM (inactive) | 49.2 µM (inactive) | 18.4 µM (inactive) | 34.5 µM (inactive) | 97.5 µM (inactive) | 29.9 µM (inactive) | 38.6 µM (inactive) | > 100 µM (inactive) | > 100 µM (inactive) | 32.9 µM (inactive) | 92 µM (inactive) | 90.8 µM (inactive) | 19.3 µM (inactive)
15 | Cc1ccccc1OC(C)C(=O)NN1C(=O)CSC1c1ccc(Cl)cc1 (configuration not stated) | 24 µM (inactive) | 30.2 µM (inactive) | – | 46.6 | 21 µM (inactive) | 31 µM (inactive) | 32.1 µM (inactive) | 60.3 µM (inactive) | 36.4 µM (inactive) | 38.5 µM (inactive) | 25.4 µM (inactive) | > 53.7 µM (inactive) | 49.9 µM (inactive) | 17.5 µM (inactive) | 30 µM (inactive) | 58.9 µM (inactive) | 37.9 µM (inactive) | 25.7 µM (inactive) | 4.16 µM (inactive)
16 | N#Cc1c(N)[nH]c(=S)c(C#N)c1-c1cccc(Cl)c1 | 30.1 µM (inactive) | 63.7 µM (inactive) | – | 41.1 | 42.4 µM (inactive) | 24.4 µM (inactive) | 32.3 µM (inactive) | 18.2 µM (inactive) | 40.7 µM (inactive) | 22.4 µM (inactive) | 21.8 µM (inactive) | 20.3 µM (inactive) | 20.2 µM (inactive) | 20.4 µM (inactive) | 25.9 µM (inactive) | 29.6 µM (inactive) | 25.6 µM (inactive) | 56.1 µM (inactive) | 18.9 µM (inactive)
